Assay results as given in patent US20240269139A1, “COMPOUNDS FOR TARGETED PROTEIN DEGRADATION OF KINASES” (DANA-FARBER CANCER INSTITUTE, INC., priority 2020, published 2024).
Read-outs that look alike come from different tables or passages of the source.

What was measured:
Assay type in all cases: cell-based
[1] = test system: protein kinases (human kinome)
Source text: (§1) Although development of targeted protein degraders requires a POI binder, among already-liganded proteins such as kinases, it was hypothesized that different targets would have a different propensity for current approaches to degrader-mediated destruction, which was termed ‘degradability’. […] It was rationalized that the probability of identifying the same kinase as a false positive in multiple treatments is low, therefore this analysis served to also assess the robustness of our data and subsequent interpretations. […] Overall, 62 protein kinases were degraded in more than 10 independent treatments, and remarkably, 9 of these (CDK4, AURKA, FER, WEE1, BLK. LIMK2, CDK6, GAK, LIMK1) were each degraded in at least 40 of the 154 independent treatments, emphasizing their predisposition to induced degradation (FIG. 1G; Appendix I).
(§2) Next, the frequency of degradation assessment was corrected for over-representation of molecules in the full dataset by omitting replicate profiling of compounds under different experimental conditions, to remove any bias. […] Unsurprisingly, the top degradable kinases mirror those from the previous analysis (CDK4, AURKA, FER, WEE1, BLK), confirming that in sufficiently large datasets, even with over-representation of certain molecules, frequency of degradation is a good measure of general tractability.

[2] = target: T1, protein kinases (human kinome) (Homo sapiens, UniProt P42680); settings: TEC (P42680), experiment wp047
T1 sequence (P42680 1-631): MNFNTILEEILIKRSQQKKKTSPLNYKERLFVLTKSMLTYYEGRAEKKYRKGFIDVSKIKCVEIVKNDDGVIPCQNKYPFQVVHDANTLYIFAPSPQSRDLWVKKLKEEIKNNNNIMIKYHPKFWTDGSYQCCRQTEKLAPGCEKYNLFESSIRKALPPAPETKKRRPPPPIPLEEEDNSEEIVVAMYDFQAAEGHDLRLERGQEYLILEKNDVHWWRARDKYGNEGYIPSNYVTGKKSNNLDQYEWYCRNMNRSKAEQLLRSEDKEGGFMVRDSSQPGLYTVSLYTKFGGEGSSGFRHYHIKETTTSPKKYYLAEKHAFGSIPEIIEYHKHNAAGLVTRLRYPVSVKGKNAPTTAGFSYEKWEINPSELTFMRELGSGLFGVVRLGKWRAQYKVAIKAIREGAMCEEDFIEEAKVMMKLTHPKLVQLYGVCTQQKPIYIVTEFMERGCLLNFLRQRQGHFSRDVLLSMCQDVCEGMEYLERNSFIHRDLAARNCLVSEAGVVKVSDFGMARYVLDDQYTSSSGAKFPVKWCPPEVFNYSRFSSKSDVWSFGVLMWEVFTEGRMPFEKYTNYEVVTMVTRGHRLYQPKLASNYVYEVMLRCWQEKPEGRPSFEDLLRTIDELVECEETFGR
Source text: as §1, §2

[3] = target: protein kinases (human kinome) (Homo sapiens, UniProt P41240); settings: experiment wp047
protein kinases (human kinome) (Homo sapiens, UniProt P41240), sequence (P41240 whole entry): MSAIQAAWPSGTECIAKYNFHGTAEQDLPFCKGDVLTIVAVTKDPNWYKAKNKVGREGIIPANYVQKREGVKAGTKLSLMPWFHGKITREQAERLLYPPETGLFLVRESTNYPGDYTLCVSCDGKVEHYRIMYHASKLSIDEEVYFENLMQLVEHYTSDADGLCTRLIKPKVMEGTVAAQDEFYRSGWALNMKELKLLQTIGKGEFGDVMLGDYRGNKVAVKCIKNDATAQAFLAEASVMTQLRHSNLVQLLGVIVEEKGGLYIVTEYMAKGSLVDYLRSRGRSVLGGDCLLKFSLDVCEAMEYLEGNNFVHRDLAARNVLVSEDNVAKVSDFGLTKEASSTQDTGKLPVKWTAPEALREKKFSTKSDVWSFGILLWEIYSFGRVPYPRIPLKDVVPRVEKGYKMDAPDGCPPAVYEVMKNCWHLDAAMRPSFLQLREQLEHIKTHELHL
Source text: as §1, §2

[4] = target: protein kinases (human kinome) (Homo sapiens, UniProt P51451)
protein kinases (human kinome) (Homo sapiens, UniProt P51451), sequence (P51451 whole entry): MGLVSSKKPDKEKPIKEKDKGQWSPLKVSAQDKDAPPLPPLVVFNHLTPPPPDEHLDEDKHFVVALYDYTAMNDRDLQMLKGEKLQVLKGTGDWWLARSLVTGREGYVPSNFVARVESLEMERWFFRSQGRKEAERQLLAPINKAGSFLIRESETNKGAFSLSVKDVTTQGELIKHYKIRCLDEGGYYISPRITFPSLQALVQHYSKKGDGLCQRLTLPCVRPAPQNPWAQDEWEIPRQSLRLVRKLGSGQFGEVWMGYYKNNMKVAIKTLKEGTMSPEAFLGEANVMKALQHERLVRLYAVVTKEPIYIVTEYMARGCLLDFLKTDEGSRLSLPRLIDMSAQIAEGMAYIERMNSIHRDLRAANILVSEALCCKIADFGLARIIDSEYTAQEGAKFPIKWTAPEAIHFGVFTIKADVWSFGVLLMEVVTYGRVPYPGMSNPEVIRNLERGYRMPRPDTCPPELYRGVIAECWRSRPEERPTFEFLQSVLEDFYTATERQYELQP
Source text: as §1, §2

In the case of Nc1ncnc2c1c(-c1ccc(Oc3ccccc3)cc1)nn2[C@@H]1CCCN(C(=O)CCCN2CCN(CCNC(=O)CCOCCOCCNc3cccc4c3C(=O)N(C3CCC(=O)NC3=O)C4=O)CC2)C1 (some centres unmarked) [DD.03.119], the “logFC FYN” value ([1]; Accession P06241-2, experiment wp047) is reported as −0.8669, the “logFC of SRC” value ([1]; Accession P12931-2, experiment wp047) is reported as −0.6128 and the “logFC FYN” value ([1]; FYN P06241-2, experiment wp047) is reported as −0.8669. The “logFC LCK” value ([1]; LCK, accession P06239-3, experiment wp047, direction of change down) was −1.787, the logFC ([1]; SRC (P12931-2) protein abundance, degrader vs DMSO, down) was −0.6128 and the “logFC ABL2 (P42684-5)” value ([1]; experiment wp047) was −1.047. The “logFC of ABL2 (P42684-5)” value ([1]; experiment wp047) was −1.047, the “logFC LCK (P06239-3)” value ([1]; experiment wp047, direction of change down) was −1.787 and the logFC [2] was −2.272. For the same compound, the logFC ([2]; direction down) was −2.272, the “logFC of CSK” value ([3]; Accession P41240) was −1.786 and the “logFC CSK” value ([3]; CSK (P41240), down) was −1.786. The “logFC of BLK” value ([4]; BLK P51451, experiment wp047) was −1.859 and the “logFC of BLK (P51451)” value ([4]; Experiment wp047, down) was −1.859.
